Among the data in US8501953B2, “PKM2 modulators for use in the treatment of cancer” (Agios Pharmaceuticals, Inc, priority 2009, dated 2013) are AC50 values, retold here.

For the assay, the target named is PKM2 (Homo sapiens, UniProt P14618). The experiment in a line: PKM2 Assay (activation; LDH-coupled, NADH absorbance at 340 nm). The class given is biochemical. Particulars: PKM2 50 ng/well, ADP 0.7 mM, PEP 0.15 mM, no FBP in Reaction Mix. On the procedure: • PKM2 stock enzyme solution was diluted in Reaction Buffer • 2 μL of compound was added into each well first, and then 180 μL of the Reaction Mix was added. • Reaction mixture with compound (without ADP) were incubated for 30 minutes at 4° C. • Plates were re-equilibrated to room temperature prior to adding 20 μL ADP to initiate the reaction. • Reaction progress was measured as changes in absorbance at 340 nm wavelength at room temperature (25° C.) Reaction Mix: PKM2 (50 ng/well), ADP (0.7 mM), PEP (0.15 mM), NADH (180 μM), LDH (2 units) in Reaction Buffer Reaction Buffer: 100 mM KCl, 50 mM Tris pH 7.5, 5 mM MgCl2, 1 mM DTT, 0.03% BSA.
Chain of PKM2 (P14618 whole entry): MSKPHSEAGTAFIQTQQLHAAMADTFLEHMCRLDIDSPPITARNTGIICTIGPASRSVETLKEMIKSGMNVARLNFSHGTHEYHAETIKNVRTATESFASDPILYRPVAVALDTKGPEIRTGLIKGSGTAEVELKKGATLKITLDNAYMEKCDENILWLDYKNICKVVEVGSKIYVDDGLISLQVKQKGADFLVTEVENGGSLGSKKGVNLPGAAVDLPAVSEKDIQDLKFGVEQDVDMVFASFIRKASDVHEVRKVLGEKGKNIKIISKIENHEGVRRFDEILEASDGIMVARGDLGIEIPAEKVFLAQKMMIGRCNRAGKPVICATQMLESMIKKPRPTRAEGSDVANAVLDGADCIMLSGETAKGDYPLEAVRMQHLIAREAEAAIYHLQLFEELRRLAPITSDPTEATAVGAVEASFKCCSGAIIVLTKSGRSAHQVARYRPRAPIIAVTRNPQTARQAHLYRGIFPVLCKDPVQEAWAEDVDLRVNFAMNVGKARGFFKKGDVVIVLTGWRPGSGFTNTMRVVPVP
Regarding `COc1ccc(C)cc1S(=O)(=O)Nc1cc2[nH]c(=O)oc2cc1C`, the AC50 – broadly, the concentration giving half of the maximal activity seen – fell in the range of 10 to 50 µM.
In the case of `Cn1c(=O)oc2cc(F)c(NS(=O)(=O)c3c(F)cccc3F)cc21` it was more than 100 µM; in that of `COc1ccc(Cl)cc1S(=O)(=O)N1CCN(S(=O)(=O)c2cc3c(cc2F)oc(=O)n3C)CC1`, less than 1 µM; in that of `Cn1c(=O)sc2cc(S(=O)(=O)N3CCCN(S(=O)(=O)c4c(F)cccc4F)CC3)ccc21`, 1 to 10 µM.
The result for `Cn1c(=O)oc2cc(S(=O)(=O)Nc3ccc4c(c3)OCO4)ccc21` reads less than 1 µM; that for `Cn1c(=O)oc2cc(F)c(S(=O)(=O)Nc3ccccc3)cc21` [drawing 242], 1 to 10 µM.
Turning to `COc1ccc(Cl)cc1NS(=O)(=O)c1cc2c(cc1C)oc(=O)n2C`, the AC50 lay within 1 to 10 µM.
The result for `CCn1c(=O)oc2cc(S(=O)(=O)Nc3ccc(F)cc3)c(C)cc21` reads 10 to 50 µM.
In the case of `COc1ccc(Cl)cc1NS(=O)(=O)c1cc2sc(=O)sc2cc1C` it was 1 to 10 µM; in that of `Cn1c(=O)oc2cc(S(=O)(=O)Nc3ccc(Cl)cc3)ccc21`, 1 to 10 µM.
In the case of `Cc1ccc(COC(=O)N2CCN(S(=O)(=O)c3cc4oc(=O)n(C)c4cc3C)CC2)cc1` it was 1 to 10 µM; in that of `CCc1cccc(NS(=O)(=O)c2ccc3c(c2)oc(=O)n3C)c1`, less than 1 µM.
On to `Cc1cc2oc(=O)n(C)c2cc1S(=O)(=O)Nc1ccccc1F`, for which the half-maximal activity concentration (AC50) lay in the range of 1 to 10 µM.
The result for `COc1ccc(Cl)cc1S(=O)(=O)Nc1cc2c(cc1Cl)oc(=O)n2C` reads 1 to 10 µM.
In the case of `COc1ccc(Cl)cc1S(=O)(=O)Nc1cc2[nH]c(=O)oc2cc1C`, the half-maximal activity concentration (AC50) fell in the range of 1 to 10 µM.
As to `Cn1c(=O)oc2cc(S(=O)(=O)Nc3ccc(OC(F)(F)F)c(Br)c3)ccc21`, the AC50 lay within 1 to 10 µM.
In the case of `Cn1c(=O)sc2ccc(NS(=O)(=O)c3c(F)cccc3F)cc21` it was 1 to 10 µM.
In the case of `Cc1cc2oc(=O)n(C)c2cc1S(=O)(=O)Nc1c(F)cccc1F` it was more than 100 µM.
In the case of `Cn1c(=O)oc2cc(S(=O)(=O)Nc3cccc4ncccc34)ccc21` it was 10 to 50 µM; in that of `Cc1cc2oc(=O)n(C)c2cc1S(=O)(=O)N1CCN(C(=O)Cc2ccc(C(F)(F)F)cc2)CC1`, more than 100 µM; in that of `COc1ccc(Cl)cc1S(=O)(=O)Nc1cc2c(cc1F)oc(=O)n2C`, 10 to 50 µM.
In the case of `CCn1c(=O)sc2ccc(NS(=O)(=O)c3cccs3)cc21`, the concentration at half-maximal activity (AC50) is 10 to 50 µM.
`O=c1sc2ccc(S(=O)(=O)Nc3ccc(Cl)cc3)cc2s1` displayed a half-maximal activity concentration (AC50) of 1 to 10 µM.
In the case of `Cc1cc2oc(=O)n(C)c2cc1S(=O)(=O)Nc1ccc(Cl)c(F)c1` it was 1 to 10 µM.
In the case of `Cc1cc2oc(=O)n(C)c2cc1NS(=O)(=O)c1ccc(F)cc1` it was 10 to 50 µM.
In the case of `COc1ccc(Cl)cc1S(=O)(=O)Nc1cc2c(cc1C)oc(=O)n2C` [drawing 47] it was less than 1 µM.
Compound `CC(=O)Nc1ccc(NS(=O)(=O)c2cc3c(cc2C)oc(=O)n3C)cc1` showed an AC50 of more than 100 µM.
Regarding `CC(=O)c1ccc(S(=O)(=O)Nc2cc3c(cc2C)oc(=O)n3C)cc1`, the AC50 lay within 10 to 50 µM.
`Cn1c(=O)oc2cc(Cl)c(S(=O)(=O)Nc3ccc(Cl)cc3)cc21` displayed a half-maximal activity concentration (AC50) of 10 to 50 µM.
The result for `Cn1c(=O)sc2ccc(NS(=O)(=O)c3ccccc3)cc21` reads 10 to 50 µM; that for `Cn1c(=O)sc2cc(S(=O)(=O)N3CCN(S(=O)(=O)c4c(F)cccc4F)CC3)ccc21`, less than 1 µM; that for `Cc1cc2oc(=O)n(C)c2cc1S(=O)(=O)N1CCCN(c2ccc(C(F)(F)F)cn2)CC1`, 1 to 10 µM.
In the case of `Cn1c(=O)oc2cc(Cl)c(S(=O)(=O)Nc3ccc(F)cc3)cc21` it was 1 to 10 µM; in that of `Cc1cc2oc(=O)n(C)c2cc1NS(=O)(=O)c1cc(Cl)cc(Cl)c1`, 10 to 50 µM.
Compound `Cn1c(=O)sc2cc(NS(=O)(=O)c3ccc(F)cc3)ccc21` returned an AC50 of 10 to 50 µM.
In the case of `Cc1cc2oc(=O)sc2cc1NS(=O)(=O)c1cccs1` it was 10 to 50 µM; in that of `COc1ccc(Cl)cc1NS(=O)(=O)c1ccc2sc(=O)sc2c1`, 10 to 50 µM; in that of `O=c1[nH]c2cc(NS(=O)(=O)c3cccs3)ccc2s1`, 10 to 50 µM.
In the case of `Cn1c(=O)sc2cc(S(=O)(=O)Nc3ccc(F)cc3)ccc21` it was less than 1 µM.
In the case of `Cc1cc2sc(=O)sc2cc1S(=O)(=O)NC1CCCCC1` it was 10 to 50 µM; in that of `CCn1c(=O)oc2ccc(NS(=O)(=O)c3cccs3)cc21`, more than 100 µM; in that of `Cc1cc(NS(=O)(=O)c2ccc3c(c2)sc(=O)n3C)ccc1F`, less than 1 µM.
The compound `Cc1cc2oc(=O)n(C)c2cc1S(=O)(=O)N1CCN(c2ccc(C(F)(F)F)cn2)CC1` displayed an AC50 of 1 to 10 µM.
The result for `CN(Cc1ccccc1)S(=O)(=O)c1ccc2c(c1)oc(=O)n2C` reads 1 to 10 µM; that for `Cn1c(=O)oc2cc(S(=O)(=O)Nc3c(F)cccc3F)ccc21`, 1 to 10 µM.
Consider `Cn1c(=O)oc2cc(S(=O)(=O)Nc3cccc(C(F)(F)F)c3)ccc21`, for which the AC50 is 1 to 10 µM.
For the compound `Cc1cc(NS(=O)(=O)c2cc3c(cc2C)oc(=O)n3C)ccc1Cl`, the AC50 was less than 1 µM.
The result for `COc1ccc(Cl)cc1S(=O)(=O)N1CCN(S(=O)(=O)c2ccc3c(c2)oc(=O)n3C)CC1` reads 1 to 10 µM.
In turn, `Cn1c(=O)sc2cc(S(=O)(=O)Nc3cccc4ccccc34)ccc21` returned an AC50 of 1 to 10 µM.
`Cn1c(=O)sc2cc(S(=O)(=O)Nc3ccc4ncccc4c3)ccc21`: the concentration at half-maximal activity (AC50) was in the range of 1 to 10 µM.
The result for `Cn1c(=O)oc2cc(F)c(S(=O)(=O)Nc3ccccc3)cc21` [drawing 56] reads less than 1 µM; that for `CCC(C)n1c(=O)sc2ccc(NS(=O)(=O)c3cc(Cl)ccc3OC)cc21` (stereo not drawn), 1 to 10 µM; that for `Cn1c(=O)oc2cc(S(=O)(=O)N3CCN(S(=O)(=O)c4ccc5ccccc5c4)CC3)ccc21`, less than 1 µM.
On to `COc1ccc(Cl)cc1NS(=O)(=O)c1cc2oc(=O)n(C)c2cc1C`, for which the half-maximal activity concentration (AC50) is 1 to 10 µM.
In the case of `COc1ccc(Cl)cc1S(=O)(=O)Nc1cc2c(cc1C)oc(=O)n2C` [drawing 27] it was more than 100 µM; in that of `COCCn1c(=O)oc2cc(S(=O)(=O)Nc3ccc(F)c(Cl)c3)ccc21`, less than 1 µM.
In the case of `Cn1c(=O)oc2cc(S(=O)(=O)Nc3ccc(OC(F)(F)F)c(Cl)c3)ccc21` it was 1 to 10 µM; in that of `COc1cc(NS(=O)(=O)c2cc3c(cc2C)oc(=O)n3C)cc(OC)c1`, 1 to 10 µM; in that of `Cc1cc(C)cc(NS(=O)(=O)c2ccc3c(c2)oc(=O)n3Cc2ccccc2)c1`, 1 to 10 µM.
In the case of `Cn1c(=O)oc2cc(S(=O)(=O)NC3CCCCC3)ccc21` it was 1 to 10 µM; in that of `CCn1c(=O)oc2cc(S(=O)(=O)Nc3ccc(F)cc3)ccc21`, 1 to 10 µM; in that of `COc1ccc(C)cc1S(=O)(=O)Nc1cc2c(cc1Cl)oc(=O)n2C`, 1 to 10 µM.
`Cn1c(=O)oc2cc(F)c(S(=O)(=O)Nc3ccc(F)cc3)cc21` displayed a concentration at half-maximal activity (AC50) of 1 to 10 µM.
The result for `CCn1c(=O)oc2cc(C)c(S(=O)(=O)Nc3ccccc3Cl)cc21` reads 10 to 50 µM.
As for `Cc1cc2c(cc1NS(=O)(=O)c1cccs1)oc(=O)n2C`, the AC50 is 10 to 50 µM.
For `Cc1ccc(NS(=O)(=O)c2ccc3c(c2)oc(=O)n3C)cc1C`, the concentration at half-maximal activity (AC50) is less than 1 µM.
In the case of `Cn1c(=O)oc2cc(S(=O)(=O)NC(C)(C)C)ccc21` it was more than 100 µM; in that of `Cn1c(=O)oc2cc(S(=O)(=O)Nc3ccc(F)cc3)ccc21`, 1 to 10 µM.
Compound `Cc1cc2sc(=O)sc2cc1S(=O)(=O)Nc1ccc(Cl)cc1` came in with a concentration at half-maximal activity (AC50) of 1 to 10 µM.
In the case of `COc1ccc(Cl)cc1S(=O)(=O)N1CCCN(S(=O)(=O)c2ccc3c(c2)sc(=O)n3C)CC1` it was less than 1 µM.
The result for `CCn1c(=O)oc2cc(Cl)c(S(=O)(=O)Nc3ccc(Cl)cc3)cc21` reads 1 to 10 µM.
On to `COc1ccc(C)cc1S(=O)(=O)Nc1ccc2sc(=O)n(C)c2c1`, for which the AC50 lay in the range of 1 to 10 µM.
In the case of `Cn1c(=O)sc2cc(S(=O)(=O)Nc3ccc(F)c(Cl)c3)ccc21` it was less than 1 µM; in that of `Cn1c(=O)oc2cc(F)c(S(=O)(=O)N3CCN(S(=O)(=O)c4ccc5c(c4)OCCO5)CC3)cc21`, less than 1 µM; in that of `Cc1cc(NS(=O)(=O)c2cc(C)c3c(c2)oc(=O)n3CCN2CCOCC2)ccc1F`, 1 to 10 µM.
The result for `Cc1cc2oc(=O)n(C)c2cc1NS(=O)(=O)c1ccccc1C` reads 1 to 10 µM; that for `COCCn1c(=O)oc2cc(S(=O)(=O)Nc3ccc(F)c(Cl)c3)cc(C)c21`, less than 1 µM.
In the case of `Cc1cc2oc(=O)n(C)c2cc1S(=O)(=O)Nc1cc(F)cc(F)c1`, the AC50 fell in the range of 1 to 10 µM.
As to `Cc1cc2oc(=O)n(C)c2cc1NS(=O)(=O)c1cccc(Cl)c1`, the AC50 is 10 to 50 µM.
In the case of `Cc1cc(C)cc(NS(=O)(=O)c2ccc3c(c2)sc(=O)n3C)c1` it was less than 1 µM; in that of `CCn1c(=O)sc2ccc(NS(=O)(=O)c3cc(C)ccc3OC)cc21`, 1 to 10 µM.
In the case of `Cc1cc(S(=O)(=O)Nc2ccc(F)c(Cl)c2)cc2oc(=O)n(CCN(C)C)c12` it was less than 1 µM.
In the case of `O=c1oc2cc(S(=O)(=O)Nc3ccc(F)cc3)ccc2n1Cc1ccccc1` it was 1 to 10 µM; in that of `COCCn1c(=O)oc2cc(S(=O)(=O)Nc3ccc(F)c(C)c3)cc(C)c21`, less than 1 µM; in that of `Cc1cc2oc(=O)n(C)c2cc1S(=O)(=O)Nc1ccccc1Cl`, 1 to 10 µM.
Regarding `Cn1c(=O)sc2cc(S(=O)(=O)Nc3cccc4ncccc34)ccc21`, the half-maximal activity concentration (AC50) was in the range of 1 to 10 µM.
In the case of `O=c1[nH]c2cc(NS(=O)(=O)c3ccccc3)ccc2s1` it was 10 to 50 µM.
In the case of `Cc1cc2sc(=O)sc2cc1S(=O)(=O)Nc1ccccc1` it was less than 1 µM; in that of `O=c1sc2ccc(S(=O)(=O)Nc3ccc(F)cc3)cc2s1`, 10 to 50 µM.
In the case of `Cc1cc2c(cc1S(=O)(=O)Nc1ccccc1Cl)oc(=O)n2C` it was 1 to 10 µM.
